Laboratory results published in PubChem BioAssay (NCI).
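Step 1: Grow cells in 96-well plates. Step 2: Expose to compound for 48 hours at 5 concentrations. Step 3: Interpolate endpoints linearly; if unreached, use highest concentration. At the TGI there is no net growth.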

Key:
Test in all cases: NCI-60 cell line screen, 48 h
786-0 renal = system: 786-0 renal
A498 renal = system: A498 renal
A549 NSCLC = system: A549 NSCLC
ACHN renal = system: ACHN renal
BT-549 breast = system: BT-549 breast
CAKI-1 renal = system: CAKI-1 renal
CCRF-CEM leukemia = system: CCRF-CEM leukemia
COLO 205 colon = system: COLO 205 colon
DU-145 prostate = system: DU-145 prostate
EKVX NSCLC = system: EKVX NSCLC
HCC-2998 colon = system: HCC-2998 colon
HCT-116 colon = system: HCT-116 colon
HCT-15 colon = system: HCT-15 colon
HL-60(TB) leukemia = system: HL-60(TB) leukemia
HOP-62 NSCLC = system: HOP-62 NSCLC
HS 578T breast = system: HS 578T breast
HT29 colon = system: HT29 colon
IGROV1 ovarian = system: IGROV1 ovarian
K-562 leukemia = system: K-562 leukemia
KM12 colon = system: KM12 colon
LOX IMVI melanoma = system: LOX IMVI melanoma
M14 melanoma = system: M14 melanoma
MALME-3M melanoma = system: MALME-3M melanoma
MCF7 breast = system: MCF7 breast
MDA-MB-231 breast = system: MDA-MB-231 breast
MDA-MB-435 = system: MDA-MB-435
MDA-N = system: MDA-N
MOLT-4 leukemia = system: MOLT-4 leukemia
NCI-H23 lung = system: NCI-H23 lung
NCI-H460 lung = system: NCI-H460 lung
NCI-H522 lung = system: NCI-H522 lung
OVCAR-8 ovarian = system: OVCAR-8 ovarian
PC-3 prostate = system: PC-3 prostate
RPMI-8226 leukemia = system: RPMI-8226 leukemia
SF-268 CNS = system: SF-268 CNS
SF-295 CNS = system: SF-295 CNS
SF-539 CNS = system: SF-539 CNS
SK-MEL-28 melanoma = system: SK-MEL-28 melanoma
SK-MEL-5 melanoma = system: SK-MEL-5 melanoma
SK-OV-3 ovarian = system: SK-OV-3 ovarian
SN12C renal = system: SN12C renal
SNB-75 CNS = system: SNB-75 CNS
SR leukemia = system: SR leukemia
SW-620 colon = system: SW-620 colon
T-47D breast = system: T-47D breast
TK-10 renal = system: TK-10 renal
UACC-257 melanoma = system: UACC-257 melanoma
UACC-62 melanoma = system: UACC-62 melanoma
NCI-H226 lung = system: NCI-H226 lung
OVCAR-3 ovarian = system: OVCAR-3 ovarian
OVCAR-4 ovarian = system: OVCAR-4 ovarian
OVCAR-5 ovarian = system: OVCAR-5 ovarian
SK-MEL-2 melanoma = system: SK-MEL-2 melanoma
SNB-19 CNS = system: SNB-19 CNS
U251 CNS = system: U251 CNS

Question: Which TGI (786-0 renal) does the source give for COc1ccc2c(N=[N+]=[N-])c(-c3ccccc3)c(=O)oc2c1 here?
Answer: > 100 µM

Question: And the TGI (A498 renal)?
Answer: > 100 µM

Question: And the TGI (A549 NSCLC)?
Answer: > 100 µM

Question: What about the TGI (ACHN renal) of the same compound?
Answer: > 100 µM

Question: What about the TGI (BT-549 breast) of the same compound?
Answer: > 100 µM

Question: What about the TGI (CAKI-1 renal) of the same compound?
Answer: > 100 µM

Question: What about the TGI (CCRF-CEM leukemia) of the same compound?
Answer: > 100 µM

Question: What about the TGI (COLO 205 colon) of the same compound?
Answer: > 100 µM

Question: And the TGI (DU-145 prostate)?
Answer: > 100 µM

Question: And the TGI (EKVX NSCLC)?
Answer: > 100 µM

Question: What about the TGI (HCC-2998 colon) of the same compound?
Answer: > 100 µM

Question: And the TGI (HCT-116 colon)?
Answer: > 100 µM

Question: What about the TGI (HCT-15 colon) of the same compound?
Answer: > 100 µM

Question: What about the TGI (HL-60(TB) leukemia) of the same compound?
Answer: 60.3 µM

Question: And the TGI (HOP-62 NSCLC)?
Answer: > 100 µM

Question: What about the TGI (HS 578T breast) of the same compound?
Answer: > 100 µM

Question: What about the TGI (HT29 colon) of the same compound?
Answer: > 100 µM

Question: And the TGI (IGROV1 ovarian)?
Answer: > 100 µM

Question: What about the TGI (K-562 leukemia) of the same compound?
Answer: > 100 µM

Question: What about the TGI (KM12 colon) of the same compound?
Answer: > 100 µM

Question: What about the TGI (LOX IMVI melanoma) of the same compound?
Answer: > 100 µM

Question: What about the TGI (M14 melanoma) of the same compound?
Answer: > 100 µM

Question: And the TGI (MALME-3M melanoma)?
Answer: > 100 µM

Question: And the TGI (MCF7 breast)?
Answer: > 100 µM

Question: And the TGI (MDA-MB-231 breast)?
Answer: > 100 µM

Question: And the TGI (MDA-MB-435)?
Answer: > 100 µM

Question: What about the TGI (MDA-N) of the same compound?
Answer: > 100 µM

Question: What about the TGI (MOLT-4 leukemia) of the same compound?
Answer: 73.1 µM

Question: What about the TGI (NCI-H23 lung) of the same compound?
Answer: > 100 µM

Question: What about the TGI (NCI-H460 lung) of the same compound?
Answer: > 100 µM

Question: What about the TGI (NCI-H522 lung) of the same compound?
Answer: > 100 µM

Question: What about the TGI (OVCAR-8 ovarian) of the same compound?
Answer: > 100 µM

Question: And the TGI (PC-3 prostate)?
Answer: > 100 µM

Question: What about the TGI (RPMI-8226 leukemia) of the same compound?
Answer: > 100 µM

Question: What about the TGI (SF-268 CNS) of the same compound?
Answer: > 100 µM

Question: And the TGI (SF-295 CNS)?
Answer: > 100 µM

Question: And the TGI (SF-539 CNS)?
Answer: > 100 µM

Question: What about the TGI (SK-MEL-28 melanoma) of the same compound?
Answer: > 100 µM

Question: And the TGI (SK-MEL-5 melanoma)?
Answer: 77.3 µM

Question: And the TGI (SK-OV-3 ovarian)?
Answer: > 100 µM

Question: And the TGI (SN12C renal)?
Answer: > 100 µM

Question: What about the TGI (SNB-75 CNS) of the same compound?
Answer: > 100 µM

Question: What about the TGI (SR leukemia) of the same compound?
Answer: 67.1 µM

Question: What about the TGI (SW-620 colon) of the same compound?
Answer: > 100 µM

Question: And the TGI (T-47D breast)?
Answer: > 100 µM

Question: And the TGI (TK-10 renal)?
Answer: > 100 µM

Question: What about the TGI (UACC-257 melanoma) of the same compound?
Answer: 85.6 µM

Question: And the TGI (UACC-62 melanoma)?
Answer: > 100 µM

Question: With Cc1cccc(C)c1NC(=O)/C=C/c1ccccc1 as the compound, how does the TGI (786-0 renal) read?
Answer: > 100 µM

Question: What about the TGI (A498 renal) of the same compound?
Answer: > 100 µM

Question: And the TGI (A549 NSCLC)?
Answer: > 100 µM

Question: What about the TGI (ACHN renal) of the same compound?
Answer: > 100 µM

Question: And the TGI (BT-549 breast)?
Answer: > 100 µM

Question: What about the TGI (CAKI-1 renal) of the same compound?
Answer: > 100 µM

Question: And the TGI (CCRF-CEM leukemia)?
Answer: > 100 µM

Question: And the TGI (COLO 205 colon)?
Answer: > 100 µM

Question: And the TGI (DU-145 prostate)?
Answer: > 100 µM

Question: What about the TGI (EKVX NSCLC) of the same compound?
Answer: > 100 µM

Question: And the TGI (HCC-2998 colon)?
Answer: > 100 µM

Question: And the TGI (HCT-116 colon)?
Answer: > 100 µM

Question: And the TGI (HCT-15 colon)?
Answer: > 100 µM

Question: What about the TGI (HL-60(TB) leukemia) of the same compound?
Answer: > 100 µM

Question: And the TGI (HOP-62 NSCLC)?
Answer: > 100 µM

Question: What about the TGI (HS 578T breast) of the same compound?
Answer: > 100 µM

Question: What about the TGI (HT29 colon) of the same compound?
Answer: > 100 µM

Question: And the TGI (K-562 leukemia)?
Answer: > 100 µM

Question: What about the TGI (KM12 colon) of the same compound?
Answer: > 100 µM

Question: And the TGI (LOX IMVI melanoma)?
Answer: > 100 µM

Question: And the TGI (M14 melanoma)?
Answer: > 100 µM

Question: And the TGI (MALME-3M melanoma)?
Answer: > 100 µM

Question: And the TGI (MCF7 breast)?
Answer: > 100 µM

Question: What about the TGI (MDA-MB-231 breast) of the same compound?
Answer: > 100 µM

Question: What about the TGI (MDA-MB-435) of the same compound?
Answer: > 100 µM

Question: And the TGI (MDA-N)?
Answer: > 100 µM

Question: And the TGI (MOLT-4 leukemia)?
Answer: > 100 µM

Question: And the TGI (NCI-H226 lung)?
Answer: > 100 µM

Question: What about the TGI (NCI-H23 lung) of the same compound?
Answer: > 100 µM

Question: What about the TGI (NCI-H460 lung) of the same compound?
Answer: > 100 µM

Question: And the TGI (NCI-H522 lung)?
Answer: > 100 µM

Question: What about the TGI (OVCAR-3 ovarian) of the same compound?
Answer: > 100 µM

Question: And the TGI (OVCAR-4 ovarian)?
Answer: > 100 µM

Question: And the TGI (OVCAR-5 ovarian)?
Answer: > 100 µM

Question: What about the TGI (OVCAR-8 ovarian) of the same compound?
Answer: > 100 µM

Question: What about the TGI (PC-3 prostate) of the same compound?
Answer: > 100 µM

Question: And the TGI (RPMI-8226 leukemia)?
Answer: > 100 µM

Question: And the TGI (SF-268 CNS)?
Answer: > 100 µM

Question: And the TGI (SF-295 CNS)?
Answer: > 100 µM

Question: What about the TGI (SF-539 CNS) of the same compound?
Answer: > 100 µM

Question: What about the TGI (SK-MEL-2 melanoma) of the same compound?
Answer: > 100 µM

Question: What about the TGI (SK-MEL-28 melanoma) of the same compound?
Answer: > 100 µM

Question: And the TGI (SK-MEL-5 melanoma)?
Answer: > 100 µM

Question: And the TGI (SK-OV-3 ovarian)?
Answer: > 100 µM

Question: And the TGI (SN12C renal)?
Answer: > 100 µM

Question: And the TGI (SNB-19 CNS)?
Answer: > 100 µM

Question: And the TGI (SNB-75 CNS)?
Answer: > 100 µM

Question: What about the TGI (SR leukemia) of the same compound?
Answer: > 100 µM

Question: And the TGI (SW-620 colon)?
Answer: > 100 µM

Question: What about the TGI (T-47D breast) of the same compound?
Answer: > 100 µM

Question: And the TGI (TK-10 renal)?
Answer: > 100 µM

Question: And the TGI (U251 CNS)?
Answer: > 100 µM

Question: And the TGI (UACC-257 melanoma)?
Answer: > 100 µM

Question: And the TGI (UACC-62 melanoma)?
Answer: > 100 µM
